Several values for one entry are separate records, joined by “and”; a condition that tells them apart may be missing. Equal entries are not always repeated.
What was measured:
PIN8 [1] = biological target: T1, PIN8 (Arabidopsis thaliana, UniProt Q9LFP6); experiment: Xenopus oocyte efflux assay, PIN8; type: cell-based; details: for Rel. 2,4-D transport rate: [3H]-2,4-D export by PIN8 from oocytes; for Rel. 2,4-D transport rate / Rel. IAA transport rate: individual experiments; for Rel. IAA transport rate: [3H]-IAA export by PIN8 from oocytes
T1 construct: made in house
T1 sequence (Q9LFP6 1-367): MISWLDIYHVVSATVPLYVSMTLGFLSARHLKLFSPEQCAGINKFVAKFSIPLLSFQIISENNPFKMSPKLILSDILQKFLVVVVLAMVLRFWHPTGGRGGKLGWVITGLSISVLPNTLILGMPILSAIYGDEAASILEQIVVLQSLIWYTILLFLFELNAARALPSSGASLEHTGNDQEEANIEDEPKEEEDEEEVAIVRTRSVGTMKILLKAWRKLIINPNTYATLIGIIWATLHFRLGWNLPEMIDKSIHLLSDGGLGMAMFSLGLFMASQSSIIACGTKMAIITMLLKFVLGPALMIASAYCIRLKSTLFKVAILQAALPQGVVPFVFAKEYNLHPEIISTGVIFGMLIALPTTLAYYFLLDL
Method: (§1) Oocyte efflux experiments were carried out as described[12],[20],[26]. Briefly, oocytes were injected with 150 ng transporter complementary RNA without or with 75 ng kinase cRNA. [^3H]-IAA (25 Ci mmol^−1) and [^3H]-4-CPA (37.7 Ci mmol^−1) was purchased from RC Tritec. [^3H]-2,4-D (25 Ci mmol^−1) was purchased from ARC. Oocytes were injected with substrate to reach an internal concentration of 1 µM, corresponding to 100%. Residual radioactivity was determined for each individual oocyte by liquid scintillation counting after the time points indicated and are expressed relative to the initial 100%. Each time point represents the mean and s.e. of ten oocytes. To calculate the relative transport rate in percentage per minute, linear regression was performed. Each data point in Fig. 1b,c and Extended Data Fig. 2b,e represents the transport rate of one biological replicate using oocytes collected from different Xenopus females.

A. thaliana PIN3 = biological target: T2, A. thaliana PIN3 (Arabidopsis thaliana, UniProt Q9S7Z8); experiment: Xenopus oocyte efflux assay, PIN3 with or without PID kinase; type: cell-based; details: for Rel. 2,4-D transport rate (% exported/min): replicates; for Rel. 2,4-D transport rate: PIN3 oocytes, individual experiments
T2 construct: expressed in transfected cells; host or cells: Xenopus oocytes (cRNA injection)
T2 sequence (Q9S7Z8 1-640): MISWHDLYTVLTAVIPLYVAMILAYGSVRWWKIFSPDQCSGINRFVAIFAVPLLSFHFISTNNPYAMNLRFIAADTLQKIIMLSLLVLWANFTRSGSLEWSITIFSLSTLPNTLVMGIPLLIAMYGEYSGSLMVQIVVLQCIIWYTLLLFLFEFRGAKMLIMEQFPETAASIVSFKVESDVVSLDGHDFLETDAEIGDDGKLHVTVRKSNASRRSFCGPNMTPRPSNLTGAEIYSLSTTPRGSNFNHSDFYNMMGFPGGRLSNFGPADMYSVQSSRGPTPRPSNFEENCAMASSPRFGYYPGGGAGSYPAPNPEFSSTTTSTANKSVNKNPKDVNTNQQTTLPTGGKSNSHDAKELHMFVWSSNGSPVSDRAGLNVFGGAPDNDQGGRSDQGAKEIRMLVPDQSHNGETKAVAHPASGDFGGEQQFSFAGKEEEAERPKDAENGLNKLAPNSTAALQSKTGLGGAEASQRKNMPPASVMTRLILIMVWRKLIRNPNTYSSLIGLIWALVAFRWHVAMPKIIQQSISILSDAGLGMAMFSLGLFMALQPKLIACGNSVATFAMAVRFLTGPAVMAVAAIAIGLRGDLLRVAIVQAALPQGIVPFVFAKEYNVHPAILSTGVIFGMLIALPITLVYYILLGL
Method: as §1

[2] = system: A. thaliana stem segments of pin1 mutants; experiment: Arabidopsis stem transport assay, pin1 mutant; type: in vivo, Arabidopsis thaliana
Method: Arabidopsis stem transport assays were carried out as described. Briefly, 2 cm stem sections were cut above the rosette of 5-week-old plants and placed in inverted orientation into auxin transport buffer containing 500 pM IAA, 1% (wt/vol) sucrose, 5 mM 2-(N-morpholino)ethanesulfonic acid, pH 5.5 with or without 100 μM NPA. After 2 h the stems were transferred into auxin transport buffer containing 417 nM [^3H]-IAA or [^3H]-2,4-D as a substrate in the absence and presence of NPA. After 2 h, 5 mm segments were dissected, and the substrate was quantified using a liquid scintillation counter.

PIN8 [3] = biological target: T1, PIN8; design: method as in PMID 35768502; details: read-out: IAA binding affinity KD, previously described; cited from earlier work

Structure (SMILES): O=C(O)COc1ccc(Cl)cc1Cl [2,4-D, 2,4-dichlorophenoxyacetic acid]
- transport rate of export from oocytes relative to IAA (PIN8 [1]; PIN8, NPA-sensitive export): about half of that determined for IAA
- Rel. 2,4-D transport rate (PIN8 [1]; NPA + (10 μM)): 0.7325 % exported/min and 0.3331 % exported/min and 0.3715 % exported/min and 0.009798 % exported/min
- Rel. 2,4-D transport rate (PIN8 [1]; NPA -): 1.122 % exported/min and 0.7012 % exported/min and 0.7258 % exported/min and 0.8004 % exported/min
- Rel. 2,4-D transport rate (% exported/min) (A. thaliana PIN3; PID +): 2.469 % exported/min and 1.491 % exported/min and 1.857 % exported/min
- Rel. 2,4-D transport rate (% exported/min) (A. thaliana PIN3; PID -): 1.104 % exported/min and -0.5881 % exported/min and -1.06 % exported/min
- export rate relative to the IAA transport rate (A. thaliana PIN3; PIN3 activated by PID kinase, NPA-sensitive): about half of the IAA transport rate
- Rel. 2,4-D transport rate (A. thaliana PIN3; PID +, NPA + (10 μM)): 0.306 % exported/min and 0.1671 % exported/min and -0.318 % exported/min
- Rel. 2,4-D transport rate (A. thaliana PIN3; PID +, NPA -): 2.085 % exported/min and 2.202 % exported/min and 1.56 % exported/min
- Rel. 2,4-D transport rate (A. thaliana PIN3; PID -, NPA + (10 μM)): 0.4736 % exported/min and -0.2953 % exported/min and -0.2713 % exported/min
- Rel. 2,4-D transport rate (A. thaliana PIN3; PID -, NPA -): -0.1695 % exported/min and 0.4151 % exported/min and -0.6296 % exported/min
- transport in stem segments ([2]; pin1 mutants): completely abolished
- CPM ([2]; sheet EDF2I, pin1, + NPA, Segment 1, single stems): 52 CPM and 51 CPM and 42 CPM and 38 CPM
- CPM ([2]; sheet EDF2I, pin1, + NPA, Segment 2, single stems): 52 CPM and 31 CPM and 27 CPM and 33 CPM
- CPM ([2]; sheet EDF2I, pin1, - NPA, Segment 2, single stems): 18 CPM and 32 CPM and 22 CPM and 34 CPM and 25 CPM

Structure (SMILES): O=C(O)Cc1c[nH]c2ccccc12 [IAA, indole-3-acetic acid]
- Rel. IAA transport rate (PIN8 [1]; NPA + (10 μM)): 0.4862 % exported/min and 0.4056 % exported/min and 0.4406 % exported/min
- Rel. IAA transport rate (PIN8 [1]; NPA -): 2.069 % exported/min and 2.225 % exported/min and 1.917 % exported/min
- Rel. IAA transport rate (% exported/min) (A. thaliana PIN3; PID +, NPA -, single experiments): 5.59 % exported/min and 5.28 % exported/min and 4.145 % exported/min
- CPM ([2]; sheet EDF2H, pin1, + NPA, Segment 2, single stems): 103 CPM and 109 CPM and 91 CPM and 134 CPM and 78 CPM
- CPM ([2]; sheet EDF2H, pin1, + NPA, Segment 3, single stems): 70 CPM and 80 CPM and 98 CPM and 135 CPM and 76 CPM
- CPM ([2]; sheet EDF2H, pin1, - NPA, Segment 3, single stems): 119 CPM and 97 CPM and 69 CPM and 107 CPM and 82 CPM
- Kd (PIN8 [3]): 40 ± 15 µM

Reference: paper PMC12095047, “Transport of phenoxyacetic acid herbicides by PIN-FORMED auxin transporters” (Nature Plants, 2025)
